Reference: patent US20130302247A1, “SYNTHESIS OF FLUOROARACHIDONIC ACID AND METHODS OF USE THEREOF” (The United States of America, as represented by the …, priority 2012, published 2013)

Tests used:
[1] = Plasma kinetics of FAA during 5-min intravenous infusion in unanesthetized mice; type: in vivo, C57BL/6J male mice; conditions: 5-minute intravenous infusion; for plasma area under the curve: mice
Description: (§1) The plasma and brain kinetics of the purified [^19F]FAA were tested in unanesthetized adult C57BL/6J male mice. The study was conducted following the National Institutes of Health Guidelines for the Care and Use of Laboratory Animals (Publication no. 80-23) and was approved by the Animal Care and Use Committee of the Eunice Kennedy Shriver National Institute of Child Health and Human Development. Male C57BL/6J mice were obtained at the age of 2-3 months. The mice were maintained in an animal facility in which temperature, humidity, and light cycle were regulated with free access to water and a fixed diet (Rodent NIH-07) that contained (as fractional percent of total fatty acids), 30.6% saturated, 22.5% monounsaturated, […], 4.9% α-linolenic, 0.2% AA, 1.6% eicosapentaenoic, and 2.2% docosahexaenoic acid.
At 4-5 months of age, a mouse was anesthetized with […], and polyethylene catheters were inserted into the femoral artery and vein. The mouse was allowed to recover from surgery in an environment maintained at 25° C., with its hindquarters loosely wrapped and taped to a wooden block. During recovery, body temperature was maintained at 37° C. by means of a rectal probe and a heating element (Indicating Temperature Controller; Yellow Springs Instrument). […] Plasma samples were separated by centrifuging at 13,000 rpm for 1 min, and stored at −80° C. until they were analyzed. […]
Total lipids were extracted from plasma (7-10 μl) and from half brain (˜0.2 g) by the method of Folch et al (28). […] Each band was scraped into tubes containing di-17:0 PC for quantifying PL, CE, TG, EtnGpl, ChoGpl, PtdIns and PtdSer lipid fractions, or 17:0 heptadecaenoic acid to quantify brain UFAs. […]

[2] = Incorporation of [19F]FAA into brain lipids of unanesthetized mice (GC/MS, in vivo kinetic infusion model); design: species or system C57BL/6J male mice
Description: as §1
At 4-5 months of age, a mouse was anesthetized with […], and polyethylene catheters were inserted into the femoral artery and vein. The mouse was allowed to recover from surgery in an environment maintained at 25° C., with its hindquarters loosely wrapped and taped to a wooden block. During recovery, body temperature was maintained at 37° C. by means of a rectal probe and a heating element (Indicating Temperature Controller; Yellow Springs Instrument). After 3 h of recovery, the unanesthetized mouse was infused intravenously for 5 min with 130 μl HEPES buffer (pH 7.4) containing 50 mg/ml fatty acid-free bovine serum albumin (BSA, Sigma), or 0.1 mg or 0.5 mg 20-fluoroarachidonic acid (20-FAA) dissolved in HEPES-BSA at a rate of 0.0223 (1+e^−0.32t) ml/min (t in seconds), using a computer-controlled variable rate infusion pump (No. 22; Harvard Apparatus). During infusion, timed arterial blood samples (˜20 μl) were collected in polyethylene-heparin lithium fluoride-coated Beckman centrifuge tubes at 0, 0.25, 0.5, 1.0, 1.5, 3.0, and 4.0 min, and 150 μl was collected at 4.9 min. Plasma samples were separated by centrifuging at 13,000 rpm for 1 min, and stored at −80° C. until they were analyzed. At 5 min, the mouse was anesthetized with sodium pentobarbital (50 mg/kg, i.v.) and subjected to head-focused microwave irradiation (5.5 kW, 0.9 s, 75% power output; Cober Electronics) to stop brain fatty acid metabolism (27). The brain was excised, dissected sagittally and stored at −80° C. until analysis.
Total lipids were extracted from plasma (7-10 μl) and from half brain (˜0.2 g) by the method of Folch et al (28). Heptadecanoic acid (17:0) was added as an internal standard to plasma prior to extraction. Total lipid extracts were separated by thin layer chromatography (TLC) on silica gel plates (Silica Gel 60A TLC plates; Whatman) that were pre-washed with chloroform/methanol (2:1 v/v) and activated by heating at 100° C. Neutral lipid subclasses including phospholipids (PLs), unesterified fatty acids (UFAs), triglycerides (TGs) and cholesteryl esters (CEs) were separated using a mixture of heptane:diethyl ether:glacial acetic acid (60:40:3 by volume) (29), and authentic PL, cholesterol, UFA, TG and CE standards were run in separate lanes to identify the bands. Phospholipid classes (EtnGpl, ethanolamine glycerophospholipid; ChoGpl, choline glycerophospholipid; PtdIns, phosphatidylinositol; PtdSer, phosphatidylserine) were separated in chloroform:methanol:H2O:glacial acetic acid (60:50:4:1 by volume) (30) and identified with authentic standards in separate lanes. The plates were sprayed with 0.03% (w/v) 6-p-toluidine-2-naphthalene sulfonic acid (Acros) in 50 mM Tris-HCl buffer (pH 7.4), and the lipid bands were visualized under UV light. Each band was scraped into tubes containing di-17:0 PC for quantifying PL, CE, TG, EtnGpl, ChoGpl, PtdIns and PtdSer lipid fractions, or 17:0 heptadecaenoic acid to quantify brain UFAs. Toluene (0.2 ml) was added to each tube. The UFAs were extracted from the scraped silica using 2:1 chloroform/methanol and 1.5 ml of 0.1 M KCl, dried and derivitized as described below. […]

[3] = mouse, intravenously injected, from ref (2); cited from earlier work
[4] = mouse brain, 5-min i.v. infusion, mean±SD, n=3

| plasma area under the curve ([1]; high dose (1.6 nmol)) [µM·h] | plasma area under the curve ([1]; low dose (0.3 nmol)) [µM·h] | FAA detected in brain unesterified fatty acid, triglyceride and cholesteryl ester fractions ([2]; end of 5-min infusion, mouse brain) [nmol/g] | k* values, brain ChoGpl [2, 4] [ml/s/g × 10^4] | k* values, brain EtnGpl [2, 4] [ml/s/g × 10^4] | k* values, brain PtdIns [2, 4] [ml/s/g × 10^4] | k* values, brain PtdSer [2, 4] [ml/s/g × 10^4] | k* values, brain Total lipid [2, 4] [ml/s/g × 10^4] | SMILES | FAA concentration in plasma over time ([1]; 0.3 or 1.6 nmol, FIG. 1) | FAA concentration within brain phospholipids (rank order) ([2]; both doses, end of 5-min infusion, FIG. 2-A) | incorporation coefficient k*, high versus low dose ([2]; mouse brain lipids, FIG. 3) | distribution of FAA in each phospholipid fraction, percentage of FAA in total phospholipid (rank order) ([2]; mouse brain, FIG. 2-B, p<0.01) | Published k* values, brain ChoGpl [3] [ml/s/g × 10^4] | Published k* values, brain EtnGpl [3] [ml/s/g × 10^4] | Published k* values, brain PtdIns [3] [ml/s/g × 10^4] | Published k* values, brain PtdSer [3] [ml/s/g × 10^4] | Published k* values, brain Total lipid [3] [ml/s/g × 10^4] |
| --- | --- | --- | --- | --- | --- | --- | --- | --- | --- | --- | --- | --- | --- | --- | --- | --- | --- |
| 0.236 ± 0.0189 | 0.0297 ± 0.0217 | < 0.01 | 6.8 ± 2.6 | 2.8 ± 0.4 | 8.6 ± 1.3 | 0.4 ± 0.1 | 15.0 ± 2.3 | O=C(O)CCC/C=C\C/C=C\C/C=C\C/C=C\CCCCCF [FAA, 20-Fluoroarachidonic acid] | increased over time in a dose-dependent manner | highest in PtdIns and ChoGpl, followed by EtnGpl and PtdSer | lower for the high infusion dose than the low dose | highest in ChoGlp, followed by PtdIns, EtnGlp and PtdSer | – | – | – | – | – |
| – | – | – | – | – | – | – | – | CCCCC/C=C\C/C=C\C/C=C\C/C=C\CCCC(=O)O [[1-^14C]AA] | – | – | – | – | 5.9 ± 1.4 | 5.7 ± 1.0 | 6.8 ± 0.8 | 1.8 ± 0.5 | 22.6 ± 1.3 |
